The source made the active and inactive calls.
Assays:
[1] = molecular target: T1, E3 ubiquitin-protein ligase XIAP (Homo sapiens, UniProt P98170); assay: Counter Screen using XIAP-Bir3 for Chemical Antagonists of Bir1/2 domains of IAP-family anti-apoptotic proteins. [Related pubchem assays (depositor defined):AID1018, AID1449, AID1514, AID1638, AID1749, AID1750, AID488957, AID488963]
[2] = molecular target: T2, Heat shock factor protein 1 (Mus musculus, UniProt P38532); assay: decrease of HSF1-responsive luciferase luminescence – cell-based, NIH3T3, dose retest, confirmation (AID 2382); format: functional;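 further: NIH3T3 fibroblasts with HSF1-driven luciferase reporter stressed by proteasome inhibitor MG132; luminescence from HSF1-driven luciferase expression after 8 hours of MG132 stress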
T2 sequence (P38532 whole entry): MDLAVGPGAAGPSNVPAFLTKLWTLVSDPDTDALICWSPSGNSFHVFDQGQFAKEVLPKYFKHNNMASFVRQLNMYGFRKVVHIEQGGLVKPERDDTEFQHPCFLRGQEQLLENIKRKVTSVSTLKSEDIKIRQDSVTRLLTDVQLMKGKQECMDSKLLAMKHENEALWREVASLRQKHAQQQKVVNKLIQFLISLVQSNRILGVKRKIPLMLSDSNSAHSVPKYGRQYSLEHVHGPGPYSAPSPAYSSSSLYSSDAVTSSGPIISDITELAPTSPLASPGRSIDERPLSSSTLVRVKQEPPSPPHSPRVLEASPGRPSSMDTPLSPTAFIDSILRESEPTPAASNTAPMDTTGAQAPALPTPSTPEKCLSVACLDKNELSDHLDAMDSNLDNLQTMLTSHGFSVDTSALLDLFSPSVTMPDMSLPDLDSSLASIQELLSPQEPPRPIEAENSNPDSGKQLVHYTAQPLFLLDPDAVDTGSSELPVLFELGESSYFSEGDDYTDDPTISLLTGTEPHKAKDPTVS

[3] = molecular target: T1, E3 ubiquitin-protein ligase XIAP; assay: small molecules displacing peptide from XIAP – biochemical, IAP family, fluorescence polarization (AID 1018); format: functional
[4] = cells; format: functional
[5] = Vero E6 cell cytotoxicity, dose response, cytotoxicity control for non-replicating M. tuberculosis project, secondary assay (AID 492998); format: functional, VeroE6; conditions: Vero C1008
[6] = THP-1 cell cytotoxicity, dose response, cytotoxicity control for non-replicating M. tuberculosis project (AID 489025); format: functional
[7] = molecular target: T3, Mucolipin-3 (Homo sapiens, UniProt Q8TDD5); assay: Fluorescence counterscreen assay for […] agonists: dose response cell-based high-throughput screening assay to identify agonists of the transient receptor potential channel ML3 (TRPML3). [Related pubchem assays: 1424, 1448 ]; format: functional
T3 sequence (Q8TDD5 whole entry): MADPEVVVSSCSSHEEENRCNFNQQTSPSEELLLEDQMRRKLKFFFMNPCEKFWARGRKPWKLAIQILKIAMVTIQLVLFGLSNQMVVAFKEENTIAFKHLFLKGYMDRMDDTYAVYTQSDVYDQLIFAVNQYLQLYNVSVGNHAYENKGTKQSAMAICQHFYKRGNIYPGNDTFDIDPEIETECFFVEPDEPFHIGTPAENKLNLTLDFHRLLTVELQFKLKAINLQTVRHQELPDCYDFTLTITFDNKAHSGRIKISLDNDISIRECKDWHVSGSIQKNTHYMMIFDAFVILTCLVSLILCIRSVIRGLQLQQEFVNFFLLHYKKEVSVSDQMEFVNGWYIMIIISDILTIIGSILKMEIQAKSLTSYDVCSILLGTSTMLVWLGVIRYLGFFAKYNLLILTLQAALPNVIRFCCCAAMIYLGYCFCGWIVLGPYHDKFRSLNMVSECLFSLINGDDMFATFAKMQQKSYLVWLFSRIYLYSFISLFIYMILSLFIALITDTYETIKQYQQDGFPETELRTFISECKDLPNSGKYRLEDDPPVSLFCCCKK

[8] = molecular target: T4, Zinc finger protein mex-5 (Caenorhabditis elegans, UniProt Q9XUB2); assay: potency of MEX-5 RNA-binding blockers – biochemical, C. elegans, fluorescence polarization, dose response (AID 1960)
T4 sequence (Q9XUB2 whole entry): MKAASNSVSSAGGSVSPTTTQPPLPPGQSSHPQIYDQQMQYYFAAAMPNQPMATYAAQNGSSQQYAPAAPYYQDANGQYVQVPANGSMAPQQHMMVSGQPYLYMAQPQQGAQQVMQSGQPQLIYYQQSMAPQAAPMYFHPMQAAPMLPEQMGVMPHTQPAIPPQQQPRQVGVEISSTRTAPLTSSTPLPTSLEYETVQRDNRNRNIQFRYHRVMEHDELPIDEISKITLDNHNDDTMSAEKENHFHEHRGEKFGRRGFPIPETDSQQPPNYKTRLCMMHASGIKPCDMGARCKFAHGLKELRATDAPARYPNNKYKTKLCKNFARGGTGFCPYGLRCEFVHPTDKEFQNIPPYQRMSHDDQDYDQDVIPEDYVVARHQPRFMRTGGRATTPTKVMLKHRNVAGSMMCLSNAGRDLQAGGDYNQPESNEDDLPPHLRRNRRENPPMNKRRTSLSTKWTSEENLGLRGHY

[9] = molecular target: Ion channel NompC (Danio rerio, UniProt Q7T1G6); assay: Dose response cell-based high-throughput screening assay for agonists of the transient receptor potential channel N1 (TRPN1). [Related pubchem assays (depositor defined):AID1424, AID1448]; format: functional
Sequence of Ion channel NompC (Q7T1G6 whole entry, the tested form may be a part): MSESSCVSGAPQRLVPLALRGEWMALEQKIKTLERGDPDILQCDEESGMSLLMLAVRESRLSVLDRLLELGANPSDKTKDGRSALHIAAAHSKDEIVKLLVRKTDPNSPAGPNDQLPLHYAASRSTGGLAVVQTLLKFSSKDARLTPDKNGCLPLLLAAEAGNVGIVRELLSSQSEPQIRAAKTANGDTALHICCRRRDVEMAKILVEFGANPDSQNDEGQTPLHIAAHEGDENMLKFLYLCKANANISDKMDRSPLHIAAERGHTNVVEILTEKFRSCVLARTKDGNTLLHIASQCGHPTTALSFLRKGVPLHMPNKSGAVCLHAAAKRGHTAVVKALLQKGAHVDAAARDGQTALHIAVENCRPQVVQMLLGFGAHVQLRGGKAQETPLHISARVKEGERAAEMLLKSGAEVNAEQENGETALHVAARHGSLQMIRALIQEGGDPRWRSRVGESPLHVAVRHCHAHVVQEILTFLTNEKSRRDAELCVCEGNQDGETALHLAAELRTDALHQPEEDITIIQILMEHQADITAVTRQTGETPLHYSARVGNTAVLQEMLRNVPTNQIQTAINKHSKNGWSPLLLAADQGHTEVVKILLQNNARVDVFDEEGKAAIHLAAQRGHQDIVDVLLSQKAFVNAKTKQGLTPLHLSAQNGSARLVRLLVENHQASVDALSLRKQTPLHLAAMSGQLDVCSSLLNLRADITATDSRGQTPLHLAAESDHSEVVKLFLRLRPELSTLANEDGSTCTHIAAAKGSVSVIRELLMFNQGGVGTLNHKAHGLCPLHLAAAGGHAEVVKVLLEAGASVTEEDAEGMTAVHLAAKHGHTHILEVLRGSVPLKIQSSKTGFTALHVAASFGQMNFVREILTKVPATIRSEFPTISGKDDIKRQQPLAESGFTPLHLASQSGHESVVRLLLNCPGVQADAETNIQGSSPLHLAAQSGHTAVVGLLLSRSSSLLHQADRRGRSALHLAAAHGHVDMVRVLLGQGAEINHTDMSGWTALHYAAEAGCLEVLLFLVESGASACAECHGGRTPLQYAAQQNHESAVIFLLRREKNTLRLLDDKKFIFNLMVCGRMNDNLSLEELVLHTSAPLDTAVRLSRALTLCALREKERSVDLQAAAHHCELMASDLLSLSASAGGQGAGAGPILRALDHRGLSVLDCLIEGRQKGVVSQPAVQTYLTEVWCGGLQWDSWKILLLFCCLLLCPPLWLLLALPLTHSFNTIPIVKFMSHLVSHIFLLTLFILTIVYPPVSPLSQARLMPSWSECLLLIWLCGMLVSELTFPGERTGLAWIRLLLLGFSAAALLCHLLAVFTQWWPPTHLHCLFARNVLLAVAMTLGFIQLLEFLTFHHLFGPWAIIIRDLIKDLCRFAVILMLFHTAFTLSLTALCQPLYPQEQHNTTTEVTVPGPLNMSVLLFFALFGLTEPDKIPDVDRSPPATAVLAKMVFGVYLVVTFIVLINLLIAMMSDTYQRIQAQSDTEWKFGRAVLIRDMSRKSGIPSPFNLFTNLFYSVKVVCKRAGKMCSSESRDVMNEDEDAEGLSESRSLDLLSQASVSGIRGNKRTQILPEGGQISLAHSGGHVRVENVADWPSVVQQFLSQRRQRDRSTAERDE

[10] = molecular target: T5, RNA-binding protein pos-1 (Caenorhabditis elegans, UniProt G5EF15); assay: disruptors of C. elegans POS-1 RNA interaction – biochemical, fluorescence polarization, dose response (AID 1964);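 further: purified POS-1 fused to maltose binding protein made in E. coli; potency of compounds blocking POS-1 binding to fluorescent RNA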
T5 sequence (G5EF15 whole entry): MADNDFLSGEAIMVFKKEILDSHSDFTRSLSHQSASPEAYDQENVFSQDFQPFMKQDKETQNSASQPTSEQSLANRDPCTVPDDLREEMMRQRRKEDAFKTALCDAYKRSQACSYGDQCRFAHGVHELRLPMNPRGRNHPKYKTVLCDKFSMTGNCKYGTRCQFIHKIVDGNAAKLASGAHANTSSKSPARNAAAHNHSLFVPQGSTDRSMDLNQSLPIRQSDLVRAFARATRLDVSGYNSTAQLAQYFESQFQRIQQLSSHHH

[11] = molecular target: T6, Tyrosine-protein phosphatase non-receptor type 7 (Homo sapiens, UniProt P35236); format: functional
T6 sequence (P35236 whole entry): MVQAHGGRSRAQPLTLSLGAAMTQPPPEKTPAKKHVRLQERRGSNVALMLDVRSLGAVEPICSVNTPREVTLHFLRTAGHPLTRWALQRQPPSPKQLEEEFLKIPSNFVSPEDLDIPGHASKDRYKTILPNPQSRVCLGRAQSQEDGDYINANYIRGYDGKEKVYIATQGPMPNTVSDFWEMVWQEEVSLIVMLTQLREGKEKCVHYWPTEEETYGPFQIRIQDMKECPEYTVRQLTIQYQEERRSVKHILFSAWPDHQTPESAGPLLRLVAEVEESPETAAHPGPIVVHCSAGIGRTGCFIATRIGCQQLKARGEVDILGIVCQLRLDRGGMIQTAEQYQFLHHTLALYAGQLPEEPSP

[12] = molecular target: T7, Dual specificity protein phosphatase 6 (Rattus norvegicus, UniProt Q64346)
T7 sequence (Q64346 whole entry): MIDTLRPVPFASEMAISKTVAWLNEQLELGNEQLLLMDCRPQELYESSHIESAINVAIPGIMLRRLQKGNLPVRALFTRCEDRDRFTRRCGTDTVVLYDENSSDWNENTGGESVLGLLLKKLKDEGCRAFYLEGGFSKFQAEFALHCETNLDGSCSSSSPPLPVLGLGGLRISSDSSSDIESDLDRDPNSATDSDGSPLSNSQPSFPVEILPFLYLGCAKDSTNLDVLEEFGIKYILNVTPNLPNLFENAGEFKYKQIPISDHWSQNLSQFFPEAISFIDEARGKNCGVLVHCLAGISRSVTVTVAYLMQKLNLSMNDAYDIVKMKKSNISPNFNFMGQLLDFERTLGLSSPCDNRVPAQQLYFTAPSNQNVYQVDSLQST

[13] = molecular target: T7, Dual specificity protein phosphatase 6; format: functional
[14] = molecular target: Glyceraldehyde-3-phosphate dehydrogenase (Homo sapiens, UniProt P04406)
Sequence of Glyceraldehyde-3-phosphate dehydrogenase (P04406 whole entry): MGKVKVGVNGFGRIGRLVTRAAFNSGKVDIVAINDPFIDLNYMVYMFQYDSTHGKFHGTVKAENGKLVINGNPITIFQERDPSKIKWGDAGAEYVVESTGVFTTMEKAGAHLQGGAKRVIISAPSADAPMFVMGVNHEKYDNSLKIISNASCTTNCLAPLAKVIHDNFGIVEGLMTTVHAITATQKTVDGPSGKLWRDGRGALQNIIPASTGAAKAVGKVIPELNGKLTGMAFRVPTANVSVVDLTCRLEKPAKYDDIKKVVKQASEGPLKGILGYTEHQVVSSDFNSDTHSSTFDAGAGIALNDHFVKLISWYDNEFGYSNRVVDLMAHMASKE

[15] = molecular target: T2, Heat shock factor protein 1; assay: enhancement of HSF1-driven luciferase signal – cell-based, NIH3T3, luminescence, dose retest, confirmation (AID 435004); format: functional;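 further: stress induced by proteasome inhibitor MG132 added 30 min after compound; luciferase reporter driven by HSF1 response element in NIH3T3 cells; actives raise luminescence as potentiators of the MG132 stress response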
[16] = molecular target: T8, Neuropeptides B/W receptor type 1 (Homo sapiens, UniProt P48145); assay: Fluorescence-based dose response cell-based high throughput screening assay to identify antagonists of the G-protein coupled receptor 7 (GPR7). [Related pubchem assays: 1952 (Screening assay (GPR7 antagonists).), 1880 (Summary AID.)]; format: functional
T8 sequence (P48145 whole entry): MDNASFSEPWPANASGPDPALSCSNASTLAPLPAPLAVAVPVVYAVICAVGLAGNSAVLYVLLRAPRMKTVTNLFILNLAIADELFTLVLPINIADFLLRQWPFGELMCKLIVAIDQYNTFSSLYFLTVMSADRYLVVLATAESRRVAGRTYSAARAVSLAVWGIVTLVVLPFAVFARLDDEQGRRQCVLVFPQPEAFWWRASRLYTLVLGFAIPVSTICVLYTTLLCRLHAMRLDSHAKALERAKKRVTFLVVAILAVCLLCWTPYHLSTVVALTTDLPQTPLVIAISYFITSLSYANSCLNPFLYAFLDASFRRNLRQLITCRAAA

[17] = molecular target: Melanin-concentrating hormone receptor 1 (Homo sapiens, UniProt Q99705); assay: Fluorescence-based counterscreen for antagonists of the G-protein coupled receptor 7 (GPR7): cell-based high throughput dose response assay to identify antagonists of the melanin-concentrating hormone receptor 1 (MCHR1).; format: functional
Sequence of Melanin-concentrating hormone receptor 1 (Q99705 whole entry): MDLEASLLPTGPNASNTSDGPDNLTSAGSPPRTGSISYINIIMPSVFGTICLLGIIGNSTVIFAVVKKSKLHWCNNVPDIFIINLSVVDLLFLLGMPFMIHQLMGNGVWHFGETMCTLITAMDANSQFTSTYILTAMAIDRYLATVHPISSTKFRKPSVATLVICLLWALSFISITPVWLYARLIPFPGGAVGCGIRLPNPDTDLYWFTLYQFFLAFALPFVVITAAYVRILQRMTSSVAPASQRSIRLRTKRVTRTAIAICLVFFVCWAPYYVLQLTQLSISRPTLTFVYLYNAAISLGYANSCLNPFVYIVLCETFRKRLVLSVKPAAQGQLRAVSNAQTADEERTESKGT

[18] = molecular target: T6, Tyrosine-protein phosphatase non-receptor type 7; assay: redox-active compounds inhibiting HePTP phosphatase – biochemical, fluorescence, mechanism study (AID 2068); format: functional
[19] = molecular target: T9, Alkaline phosphatase, tissue-nonspecific isozyme (Homo sapiens, UniProt P05186); assay: potency against alkaline phosphatase TNAP – biochemical, luminescent, dose response, SAR follow-up (AID 1056)
T9 sequence (P05186 whole entry): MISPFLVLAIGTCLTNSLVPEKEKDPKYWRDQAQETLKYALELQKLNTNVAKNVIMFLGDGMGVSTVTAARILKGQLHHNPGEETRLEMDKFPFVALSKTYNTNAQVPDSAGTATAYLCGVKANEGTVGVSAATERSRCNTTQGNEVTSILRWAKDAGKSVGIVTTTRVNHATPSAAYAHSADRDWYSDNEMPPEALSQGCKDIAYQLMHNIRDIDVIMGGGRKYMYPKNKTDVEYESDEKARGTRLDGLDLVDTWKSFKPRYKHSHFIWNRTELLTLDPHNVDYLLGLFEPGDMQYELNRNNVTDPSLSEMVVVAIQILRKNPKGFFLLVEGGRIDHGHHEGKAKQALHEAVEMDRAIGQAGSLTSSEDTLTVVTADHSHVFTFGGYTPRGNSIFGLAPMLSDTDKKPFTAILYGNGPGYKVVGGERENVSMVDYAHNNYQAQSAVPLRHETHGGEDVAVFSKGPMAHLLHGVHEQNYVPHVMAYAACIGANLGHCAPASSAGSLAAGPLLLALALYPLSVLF

[20] = molecular target: Alkaline phosphatase, placental type (Homo sapiens, UniProt P05187); assay: human placental alkaline phosphatase inhibition – biochemical, luminescence, confirmation (AID 1512); format: functional
Sequence of Alkaline phosphatase, placental type (P05187 whole entry): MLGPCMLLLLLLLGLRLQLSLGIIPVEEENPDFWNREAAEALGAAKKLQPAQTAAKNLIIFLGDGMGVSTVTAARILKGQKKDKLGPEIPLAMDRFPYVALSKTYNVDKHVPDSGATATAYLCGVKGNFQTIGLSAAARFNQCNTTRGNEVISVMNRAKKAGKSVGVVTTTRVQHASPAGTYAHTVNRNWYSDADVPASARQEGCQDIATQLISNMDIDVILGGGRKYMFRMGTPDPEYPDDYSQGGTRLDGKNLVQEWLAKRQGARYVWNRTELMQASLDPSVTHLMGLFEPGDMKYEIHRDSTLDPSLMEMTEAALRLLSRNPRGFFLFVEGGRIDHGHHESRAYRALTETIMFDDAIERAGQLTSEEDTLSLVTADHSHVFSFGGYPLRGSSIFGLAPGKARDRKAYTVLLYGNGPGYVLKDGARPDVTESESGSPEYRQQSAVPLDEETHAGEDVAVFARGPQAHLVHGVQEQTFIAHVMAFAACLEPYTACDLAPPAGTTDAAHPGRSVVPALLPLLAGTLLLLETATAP

[21] = molecular target: Voltage-gated N-type calcium channel alpha-1B subunit/Amyloid beta A4 precursor protein-binding family A member 1 (Homo sapiens, UniProt Q00975+Q02410); assay: disruptors of Mint-PDZ/N-type channel peptide interaction – biochemical, HTRF, set 2, SAR follow-up (AID 434980); format: functional
[22] = Luminescent dose response cell-based high throughput screening assay for inhibitors of the Janus kinase 2 mutant JAK2V617F. [Related pubchem assays: 1446 (Primary screen.), 1521 (Confirmation assay.), 1486 (Counter screen.)]; format: functional
[23] = molecular target: Polyadenylate-binding protein 1 (Homo sapiens, UniProt P11940); assay: blockers of PABP interaction with poly(A) – biochemical, fluorescence polarization, […] (AID 2014)
Sequence of Polyadenylate-binding protein 1 (P11940 whole entry): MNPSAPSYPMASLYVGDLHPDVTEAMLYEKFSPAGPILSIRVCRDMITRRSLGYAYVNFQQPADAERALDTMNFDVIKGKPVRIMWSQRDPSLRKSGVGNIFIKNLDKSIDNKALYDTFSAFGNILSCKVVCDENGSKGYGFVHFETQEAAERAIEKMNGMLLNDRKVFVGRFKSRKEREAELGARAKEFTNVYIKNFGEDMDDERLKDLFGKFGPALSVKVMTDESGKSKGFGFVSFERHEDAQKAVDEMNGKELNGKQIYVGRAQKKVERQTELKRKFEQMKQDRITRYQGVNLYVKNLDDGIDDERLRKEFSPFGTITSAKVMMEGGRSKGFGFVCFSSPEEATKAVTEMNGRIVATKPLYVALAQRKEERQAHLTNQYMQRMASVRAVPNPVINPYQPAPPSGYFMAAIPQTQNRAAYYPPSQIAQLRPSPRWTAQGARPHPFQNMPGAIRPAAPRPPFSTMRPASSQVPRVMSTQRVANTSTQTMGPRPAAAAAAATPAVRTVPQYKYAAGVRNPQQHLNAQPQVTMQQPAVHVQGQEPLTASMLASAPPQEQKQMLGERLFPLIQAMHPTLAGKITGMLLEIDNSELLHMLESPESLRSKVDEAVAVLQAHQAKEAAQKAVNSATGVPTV

[24] = molecular target: Eukaryotic translation initiation factor 4H (Homo sapiens, UniProt Q15056); assay: eIF4H binding inhibition – biochemical, uHTS, fluorescence polarization, translation initiation inhibitor project, primary screen (AID 2012)

T1 sequence (P98170 whole entry): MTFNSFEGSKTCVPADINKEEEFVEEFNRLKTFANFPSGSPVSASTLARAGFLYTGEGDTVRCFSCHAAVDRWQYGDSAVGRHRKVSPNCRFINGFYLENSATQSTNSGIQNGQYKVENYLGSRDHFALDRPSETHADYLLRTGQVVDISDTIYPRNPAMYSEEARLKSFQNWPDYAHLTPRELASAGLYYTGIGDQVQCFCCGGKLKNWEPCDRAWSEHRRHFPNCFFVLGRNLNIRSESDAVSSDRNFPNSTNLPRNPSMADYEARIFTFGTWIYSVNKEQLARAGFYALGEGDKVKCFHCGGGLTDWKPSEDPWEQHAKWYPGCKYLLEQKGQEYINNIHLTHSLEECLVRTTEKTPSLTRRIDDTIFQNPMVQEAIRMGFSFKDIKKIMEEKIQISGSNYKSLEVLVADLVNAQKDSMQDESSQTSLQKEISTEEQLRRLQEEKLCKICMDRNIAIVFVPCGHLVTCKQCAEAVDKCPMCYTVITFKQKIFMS

O=C(c1ccc(O)cc1)c1ccc(C(=O)O)c(C(=O)O)c1
IC50 [1]: > 100 µM (inactive) | EC50 [2]: > 195 µM (not active) | IC50 [3]: > 100 µM (not active)

COc1cccc(/C=C2\SC(=S)N(CCC(=O)N3CCCCC3)C2=O)c1
IC50 [4]: 17.2 µM (active) | CC50 [5]: 8.75 µM (active) | CC50 [6]: 18.6 µM (active)

CC(C)/C=C1\CC/C(=C\c2ccc(N(C)C)cc2)C1=O
EC50 [7]: 1.9 µM (active) | EC50 [8]: > 300 µM (inconclusive) | EC50 [9]: 0.507 µM (active) | EC50 [10]: > 300 µM (not active)

C[C@@H](C(N)=O)n1c(=O)n(Cc2ccccc2)c(=O)n(-c2ccccc2)c1=O
IC50 [11]: > 100 µM (not active) | IC50 [12]: > 100 µM (inactive) | IC50 [13]: > 100 µM (inactive) | IC50 [14]: > 100 µM (not active)

Cc1ccccc1CC1(CO)CCCN(C(=O)c2ccccc2Cl)C1 (configuration not stated)
EC50 [15]: > 260 µM (inactive) | IC50 [16]: > 43.8 µM (not active) | IC50 [17]: 33.3 µM (not active)

COc1cc(C(=S)NCc2ccc(F)c(C(F)(F)F)c2)ccc1O
IC50 [18]: 1.65 µM (active) | IC50 [13]: > 100 µM (inactive)

CCn1c(SCC(=O)c2ccc(O)c(O)c2)nnc1-c1ccc(OC)cc1
IC50 [19]: > 100 µM (inactive) | IC50 [20]: 8.31 µM (inactive)

O=C(Nc1ncc(-c2ccccc2)s1)c1cc(-c2ccco2)nc2ccccc12
IC50 [21]: 18 µM (active)

COc1ccc(-n2nnnc2SCC(=O)c2ccc(O)c(O)c2)cc1
IC50 [19]: 5.93 µM (active) | IC50 [22]: 1.46 µM (active) | IC50 [20]: 1.42 µM (active)

CN1/C(=C/c2cccc[n+]2CCO)Sc2ccccc21
IC50 [23]: 1.87 µM (active) | IC50 [24]: > 100 µM (inactive)

— ChEMBL document CHEMBL1201862, “PubChem BioAssay data set” (2004)
